# Laboratory results as given in ChEMBL document CHEMBL1201862, “PubChem BioAssay data set” (2004).
# Calls of active or inactive are those of the source.
# What was measured:
# Jurkat [1] = experiment: blockers of NF-kB activation in T cells – Jurkat, luciferase reporter, luminescence, B- and T-cell, dose response (AID 489004); type: functional, cell-based; settings: Homo sapiens;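 note: NF-kB luciferase reporter Jurkat cells stimulated with PMA plus ionomycin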
# [2] = HEK-293T viability loss, compound-treated – cell-based, uHTS hits, cytotoxicity control for B/T-cell NF-kB inhibitor project, dose response (AID 489019); type: functional;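 note: IC50 reflects cytotoxicity as loss of cell viability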
# [3] = biological target: T1, Microphthalmia-associated transcription factor (Homo sapiens, UniProt O75030); experiment: reducers of TRPM1 reporter luminescence, concentration series – cell-based, SK-MEL-5, cherry-picked, set 3, MITF inhibitor project, dose response (AID 493073); type: functional;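 note: SK-MEL-5 melanoma cells with luciferase driven by the MITF target TRPM1 promoter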
# T1 sequence (O75030 whole entry): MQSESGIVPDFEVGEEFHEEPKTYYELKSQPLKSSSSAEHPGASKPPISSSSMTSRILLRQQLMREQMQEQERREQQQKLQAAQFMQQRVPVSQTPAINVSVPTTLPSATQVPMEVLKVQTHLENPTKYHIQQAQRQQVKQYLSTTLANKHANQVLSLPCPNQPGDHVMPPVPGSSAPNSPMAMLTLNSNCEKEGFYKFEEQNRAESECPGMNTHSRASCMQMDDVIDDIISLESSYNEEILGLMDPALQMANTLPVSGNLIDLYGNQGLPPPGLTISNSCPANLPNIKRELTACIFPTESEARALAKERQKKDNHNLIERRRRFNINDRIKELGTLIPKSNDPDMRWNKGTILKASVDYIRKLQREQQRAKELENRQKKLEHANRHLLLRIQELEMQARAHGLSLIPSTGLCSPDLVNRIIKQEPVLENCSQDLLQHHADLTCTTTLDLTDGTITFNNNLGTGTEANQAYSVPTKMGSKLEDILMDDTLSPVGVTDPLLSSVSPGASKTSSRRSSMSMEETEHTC
# Paired box protein Pax-8 = Paired box protein Pax-8 (Homo sapiens, UniProt Q06710); experiment: PAX8 transcriptional activity inhibition in RMG-I – RMG-I cells, luciferase, cherry-pick, dose response (AID 687027); type: functional, cell-based;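 note: luciferase reporter driven by Pax8 target thyroperoxidase promoter measured by SteadyGlo luminescence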
# [4] = A549 cell cytotoxicity, dose response, cytotoxicity control, plate reader, cherry-pick, antagonist series (AID 743412); type: functional, cell-based
# [5] = toxicity toward HepG2 liver cells – cell-based, plate reader, cherry-pick, antagonist series, cytotoxicity control, dose response (AID 743416); type: functional
# [6] = blockers of bursicon-stimulated LGR2 cAMP reporter – cell-based, HEK293, CRE-luciferase reporter, cherry pick, set 2, dose response (AID 743343); type: functional;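 note: transfected cells were stimulated with diluted bursicon conditioned medium after compound addition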
# [7] = general cell-killing toxicity readout – plate reader, dry powder samples, cytotoxicity control for PAX8 inhibitor project, dose response (AID 743021); type: functional, cell-based
# [8] = blockade of melanocortin 4 receptor signaling – cell-based, plate reader, cherry pick, counter-screen for LGR2 antagonist project, dose response (AID 743444); type: functional;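 note: transfected HEK 293 cells stimulated with alpha-MSH peptide; potency of inhibitors of the alpha-MSH evoked signal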
# [9] = viability loss in HEK293 cells – cell-based, plate reader, cherry-picked samples, cytotoxicity control, dose response (AID 743446); type: functional
# Cysteine protease ATG4B = Cysteine protease ATG4B (Homo sapiens, UniProt Q9Y4P1); type: functional;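 note: Fluorescence-based dose-response confirmation assay measuring inhibition of ATG4B activity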
# Phospholipase A2 = Phospholipase A2 (Homo sapiens, UniProt P04054); type: functional;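 note: confirmatory dose-response counterscreen on phospholipase A2, testing hits that came from an ultra-high-throughput screen for ATG4B inhibitors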
# Chain of Phospholipase A2 (P04054 whole entry): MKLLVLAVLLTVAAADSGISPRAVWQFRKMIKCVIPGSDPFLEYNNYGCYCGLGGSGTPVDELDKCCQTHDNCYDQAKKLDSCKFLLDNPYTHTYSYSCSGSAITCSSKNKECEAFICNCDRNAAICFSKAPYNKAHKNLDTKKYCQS
# Exodeoxyribonuclease V = Exodeoxyribonuclease V (Escherichia coli (strain K12), UniProt P04993+P07648+P08394); experiment: RecBCD inhibition via phage-restricted bacterial growth – absorbance, V66 E. coli, mutant T4 phage, counter-screen for AddAB inhibitor project, dose response (AID 492957); type: functional, cell-based, Escherichia coli str. K-12 substr. MG1655
# Chain of Exodeoxyribonuclease V (P04993 whole entry): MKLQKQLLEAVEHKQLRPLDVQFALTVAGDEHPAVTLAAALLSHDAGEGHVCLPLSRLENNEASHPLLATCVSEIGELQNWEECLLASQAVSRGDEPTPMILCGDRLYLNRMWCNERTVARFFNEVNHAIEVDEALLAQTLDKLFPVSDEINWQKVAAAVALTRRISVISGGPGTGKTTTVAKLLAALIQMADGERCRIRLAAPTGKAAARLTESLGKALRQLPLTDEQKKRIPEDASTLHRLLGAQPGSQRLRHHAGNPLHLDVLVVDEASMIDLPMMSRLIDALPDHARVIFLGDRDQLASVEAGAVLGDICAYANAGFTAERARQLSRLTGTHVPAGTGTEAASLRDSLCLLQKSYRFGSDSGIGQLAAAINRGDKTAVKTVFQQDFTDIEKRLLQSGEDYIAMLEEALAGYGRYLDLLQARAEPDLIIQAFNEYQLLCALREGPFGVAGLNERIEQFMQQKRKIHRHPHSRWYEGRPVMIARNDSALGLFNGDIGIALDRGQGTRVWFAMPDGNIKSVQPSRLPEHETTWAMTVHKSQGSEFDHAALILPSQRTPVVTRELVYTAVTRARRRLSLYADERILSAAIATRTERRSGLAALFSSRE
# Chain of Exodeoxyribonuclease V (P07648 whole entry): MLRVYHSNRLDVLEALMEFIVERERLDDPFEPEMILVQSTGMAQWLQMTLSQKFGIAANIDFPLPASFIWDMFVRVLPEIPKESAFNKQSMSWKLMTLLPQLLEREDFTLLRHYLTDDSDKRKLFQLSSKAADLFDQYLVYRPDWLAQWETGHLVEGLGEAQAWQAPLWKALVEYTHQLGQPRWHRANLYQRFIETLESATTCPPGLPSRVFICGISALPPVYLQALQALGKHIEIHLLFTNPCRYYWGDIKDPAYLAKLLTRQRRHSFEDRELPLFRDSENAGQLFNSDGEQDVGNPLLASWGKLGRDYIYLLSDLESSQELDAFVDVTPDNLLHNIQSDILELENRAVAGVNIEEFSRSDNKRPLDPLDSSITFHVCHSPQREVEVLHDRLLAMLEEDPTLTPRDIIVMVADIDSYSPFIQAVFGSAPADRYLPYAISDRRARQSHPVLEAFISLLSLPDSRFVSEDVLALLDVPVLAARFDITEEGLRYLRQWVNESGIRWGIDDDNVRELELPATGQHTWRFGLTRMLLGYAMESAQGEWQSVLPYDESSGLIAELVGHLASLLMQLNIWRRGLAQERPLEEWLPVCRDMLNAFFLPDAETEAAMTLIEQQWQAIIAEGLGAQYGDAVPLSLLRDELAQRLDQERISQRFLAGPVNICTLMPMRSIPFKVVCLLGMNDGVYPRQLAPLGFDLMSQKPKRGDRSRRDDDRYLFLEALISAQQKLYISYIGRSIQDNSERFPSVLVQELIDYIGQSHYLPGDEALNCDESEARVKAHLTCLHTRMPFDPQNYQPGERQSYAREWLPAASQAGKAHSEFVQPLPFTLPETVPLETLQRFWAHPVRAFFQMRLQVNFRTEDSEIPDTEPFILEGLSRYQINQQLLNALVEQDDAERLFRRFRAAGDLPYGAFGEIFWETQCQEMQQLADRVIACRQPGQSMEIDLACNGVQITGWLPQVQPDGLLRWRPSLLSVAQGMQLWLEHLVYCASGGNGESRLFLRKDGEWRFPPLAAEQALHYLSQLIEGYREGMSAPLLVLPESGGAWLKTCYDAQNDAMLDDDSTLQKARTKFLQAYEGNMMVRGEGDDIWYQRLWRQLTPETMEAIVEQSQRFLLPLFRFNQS
# Chain of Exodeoxyribonuclease V (P08394 whole entry): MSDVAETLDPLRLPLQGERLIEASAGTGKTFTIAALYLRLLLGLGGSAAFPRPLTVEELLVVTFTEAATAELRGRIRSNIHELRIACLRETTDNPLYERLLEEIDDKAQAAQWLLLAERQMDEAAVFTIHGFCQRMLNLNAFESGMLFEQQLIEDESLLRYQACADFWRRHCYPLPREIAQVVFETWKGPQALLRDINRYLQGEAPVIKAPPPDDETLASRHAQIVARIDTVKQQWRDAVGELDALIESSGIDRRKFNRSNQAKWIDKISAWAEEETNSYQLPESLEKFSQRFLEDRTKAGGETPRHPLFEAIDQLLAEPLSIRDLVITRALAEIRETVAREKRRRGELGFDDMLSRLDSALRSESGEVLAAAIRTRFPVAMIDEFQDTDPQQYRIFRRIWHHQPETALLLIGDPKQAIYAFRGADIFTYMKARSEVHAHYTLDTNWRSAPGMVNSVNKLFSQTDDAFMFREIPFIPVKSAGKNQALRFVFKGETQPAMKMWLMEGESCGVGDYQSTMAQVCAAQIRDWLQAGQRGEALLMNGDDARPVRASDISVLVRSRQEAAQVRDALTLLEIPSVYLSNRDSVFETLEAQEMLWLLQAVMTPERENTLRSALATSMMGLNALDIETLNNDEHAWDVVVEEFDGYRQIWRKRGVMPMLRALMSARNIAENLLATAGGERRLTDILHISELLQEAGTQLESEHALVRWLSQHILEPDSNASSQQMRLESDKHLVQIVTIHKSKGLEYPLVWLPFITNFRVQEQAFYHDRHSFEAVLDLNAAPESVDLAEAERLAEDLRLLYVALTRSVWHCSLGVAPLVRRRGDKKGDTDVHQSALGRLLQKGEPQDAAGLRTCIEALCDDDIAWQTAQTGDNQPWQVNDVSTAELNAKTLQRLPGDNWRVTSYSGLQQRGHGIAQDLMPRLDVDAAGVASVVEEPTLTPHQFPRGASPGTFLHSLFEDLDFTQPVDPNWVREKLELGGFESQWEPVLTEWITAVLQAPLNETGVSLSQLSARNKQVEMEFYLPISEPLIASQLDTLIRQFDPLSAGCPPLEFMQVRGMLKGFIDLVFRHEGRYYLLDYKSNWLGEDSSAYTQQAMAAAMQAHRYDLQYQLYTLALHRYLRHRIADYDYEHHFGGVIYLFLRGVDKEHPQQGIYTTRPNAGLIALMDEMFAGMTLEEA
# [10] = Counterscreen for AddAB inhibitors: absorbance-based bacterial cell-based high throughput dose response assay for inhibitors of bacterial viability. [Related pubchem assays (depositor defined):AID435030, AID449728, AID449731, AID488942, AID488955, AID488956]; type: functional
# Tumor necrosis factor = Tumor necrosis factor (Homo sapiens, UniProt P01375); experiment: analog potency on TNFa NF-kB signaling – cell-based, revised, SAR follow-up (AID 2337); type: functional
# Chain of Tumor necrosis factor (P01375 whole entry, the tested form may be a part): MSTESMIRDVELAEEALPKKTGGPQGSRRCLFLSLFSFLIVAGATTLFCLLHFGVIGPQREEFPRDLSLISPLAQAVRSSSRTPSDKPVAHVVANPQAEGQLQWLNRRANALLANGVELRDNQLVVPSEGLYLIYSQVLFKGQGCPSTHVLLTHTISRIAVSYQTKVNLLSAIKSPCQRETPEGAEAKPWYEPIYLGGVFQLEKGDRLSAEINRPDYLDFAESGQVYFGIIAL
# [11] = biological target: Nucleotide-binding oligomerization domain-containing protein 1 (Homo sapiens, UniProt Q9Y239); experiment: blockers of NOD1 pathway activity – revised, SAR follow-up (AID 2333); type: functional
# Chain of Nucleotide-binding oligomerization domain-containing protein 1 (Q9Y239 whole entry, the tested form may be a part): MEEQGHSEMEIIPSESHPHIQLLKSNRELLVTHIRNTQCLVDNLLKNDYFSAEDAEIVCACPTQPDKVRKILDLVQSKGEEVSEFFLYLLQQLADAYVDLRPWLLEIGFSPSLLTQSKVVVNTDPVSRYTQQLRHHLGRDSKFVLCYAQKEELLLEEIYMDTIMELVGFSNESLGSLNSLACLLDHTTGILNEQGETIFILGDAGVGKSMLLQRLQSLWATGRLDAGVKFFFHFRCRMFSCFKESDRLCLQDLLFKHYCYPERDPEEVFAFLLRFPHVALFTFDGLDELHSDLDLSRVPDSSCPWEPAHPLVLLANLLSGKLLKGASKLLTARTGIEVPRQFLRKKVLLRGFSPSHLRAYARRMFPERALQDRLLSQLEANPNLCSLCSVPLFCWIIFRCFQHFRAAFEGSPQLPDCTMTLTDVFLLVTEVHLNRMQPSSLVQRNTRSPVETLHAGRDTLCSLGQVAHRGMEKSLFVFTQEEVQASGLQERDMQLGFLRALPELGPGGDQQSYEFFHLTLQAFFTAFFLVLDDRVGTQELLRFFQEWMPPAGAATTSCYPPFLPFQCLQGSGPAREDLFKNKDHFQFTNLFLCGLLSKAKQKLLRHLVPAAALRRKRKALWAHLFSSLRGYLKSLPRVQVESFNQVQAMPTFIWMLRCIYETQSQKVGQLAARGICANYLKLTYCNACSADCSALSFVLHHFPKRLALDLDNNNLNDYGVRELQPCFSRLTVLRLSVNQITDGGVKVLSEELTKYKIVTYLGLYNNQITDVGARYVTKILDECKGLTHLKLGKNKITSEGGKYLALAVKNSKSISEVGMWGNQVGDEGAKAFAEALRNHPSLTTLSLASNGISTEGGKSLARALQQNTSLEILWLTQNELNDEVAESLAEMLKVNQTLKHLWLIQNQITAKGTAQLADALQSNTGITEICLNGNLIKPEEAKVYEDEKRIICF
# [12] = biological target: Nucleotide-binding oligomerization domain-containing protein 2 (Homo sapiens, UniProt Q9HC29); experiment: PubChem AID 2334; type: functional
# HEK293 [13] = experiment: cells; settings: Homo sapiens
# HEK293 [14] = experiment: HEK293T cell viability loss, resazurin readout – resazurin fluorescence, cytotoxicity control for NF-kB activator project, SAR follow-up (AID 493251); type: functional, cell-based; settings: Homo sapiens
# Jurkat [15] = experiment: SAR Analysis of small molecule inhibitors of T-cell specific antigen receptor-induced NF-kB activation in a Jurkat cell line using a luminescence assay - Set 2. [Related pubchem assays (depositor defined):AID435003, AID435012, AID465]; type: functional, cell-based; settings: Homo sapiens
# HEK293 [16] = experiment: SAR Analysis of small molecule inhibitors of T-cell specific antigen receptor-induced NF-kB activation in a HEK-293T cell line using a luminescence assay - Set 2. [Related pubchem assays (depositor defined):AID435003, AID435012, AID489026]; type: functional, cell-based; settings: Homo sapiens
# [17] = biological target: Serine/threonine-protein phosphatase (Candida dubliniensis (strain CD36 / CBS 7987 / NCPF 3949 / NRRLY-17841) (Yeast), UniProt B9W6M3); experiment: Fluorescence Cell-Based Secondary Assay to Identify Inhibitors of Calcineurin. [Related pubchem assays (depositor defined):AID1979, AID2007]; type: functional
# [18] = biological target: Dual specificity protein kinase CLK1 (Homo sapiens, UniProt P49759); experiment: inhibition of human CLK1 activity – biochemical, cherry-picked samples, selectivity assay for Dyrk1A inhibitor project, dose response (AID 588811)
# Chain of Dual specificity protein kinase CLK1 (P49759 whole entry): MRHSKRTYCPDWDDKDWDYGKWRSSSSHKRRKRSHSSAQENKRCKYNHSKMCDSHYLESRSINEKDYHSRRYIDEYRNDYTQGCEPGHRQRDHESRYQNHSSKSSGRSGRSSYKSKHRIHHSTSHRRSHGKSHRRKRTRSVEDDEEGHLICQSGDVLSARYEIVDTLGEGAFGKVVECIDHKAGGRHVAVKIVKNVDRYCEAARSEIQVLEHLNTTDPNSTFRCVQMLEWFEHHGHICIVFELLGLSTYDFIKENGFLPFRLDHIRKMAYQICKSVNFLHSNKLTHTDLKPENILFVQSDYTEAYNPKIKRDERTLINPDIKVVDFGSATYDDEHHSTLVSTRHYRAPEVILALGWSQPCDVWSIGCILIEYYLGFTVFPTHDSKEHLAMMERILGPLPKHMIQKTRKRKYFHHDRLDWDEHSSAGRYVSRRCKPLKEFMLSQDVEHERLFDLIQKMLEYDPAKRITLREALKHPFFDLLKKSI
# [19] = biological target: Dual specificity tyrosine-phosphorylation-regulated kinase 1A (Rattus norvegicus, UniProt Q63470); type: biochemical, Homo sapiens
# [20] = biological target: T2, Dual specificity protein phosphatase 3 (Homo sapiens, UniProt P51452); experiment: VHR1 phosphatase inhibitors, primary screen, biochemical, absorbance, uHTS (AID 1654)
# T2 sequence (P51452 whole entry): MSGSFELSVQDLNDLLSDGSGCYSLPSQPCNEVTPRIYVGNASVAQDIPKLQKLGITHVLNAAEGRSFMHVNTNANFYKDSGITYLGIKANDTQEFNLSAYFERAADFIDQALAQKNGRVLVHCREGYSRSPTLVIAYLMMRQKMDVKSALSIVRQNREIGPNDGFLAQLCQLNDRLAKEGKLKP
# [21] = biological target: T2, Dual specificity protein phosphatase 3; experiment: VHR1 phosphatase inhibitors, biochemical (AID 1878)
# [22] = biological target: T3, Dual specificity protein phosphatase 6 (Rattus norvegicus, UniProt Q64346); experiment: inhibition of rat DUSP6 enzyme activity – biochemical, in vitro, primary screen (AID 425)
# T3 sequence (Q64346 whole entry): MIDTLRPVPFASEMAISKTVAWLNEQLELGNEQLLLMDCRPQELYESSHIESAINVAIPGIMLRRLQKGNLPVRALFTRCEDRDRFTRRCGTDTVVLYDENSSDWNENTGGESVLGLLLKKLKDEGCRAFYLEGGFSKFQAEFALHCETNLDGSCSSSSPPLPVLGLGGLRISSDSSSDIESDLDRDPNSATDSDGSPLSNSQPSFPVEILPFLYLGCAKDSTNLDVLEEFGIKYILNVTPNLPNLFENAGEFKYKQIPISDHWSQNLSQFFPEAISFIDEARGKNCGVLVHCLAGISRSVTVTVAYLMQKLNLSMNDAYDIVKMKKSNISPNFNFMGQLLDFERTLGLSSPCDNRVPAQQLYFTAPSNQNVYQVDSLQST
# [23] = restored growth of temperature-sensitive Burl-1 yeast – whole organism, S. cerevisiae, Burl-1 ts mutant, luminescence, counter-screen for SUMOylation pathway inhibitor project, dose response (AID 463199); type: functional
smiles,measurement,setting,value
CCOc1ccc(NC(=O)Nc2cccc(C(=O)O)c2)cc1,IC50,Jurkat [1],0.85 µM (active)
same,IC50,[2],> 80 µM (inactive)
same,AC50,[3],1.53 µM (active)
same,AC50,Paired box protein Pax-8,3.85 µM (active)
same,AC50,[4],45.1 µM (active)
same,AC50,[5],> 52 µM (inactive)
same,AC50,[6],0.303 µM (active)
same,AC50,[7],11.7 µM (active)
same,AC50,[8],0.319 µM (active)
same,AC50,[9],40.4 µM (active)
N#Cc1c(N)[nH]c2ccc(Sc3ccccc3)cc12,IC50,Cysteine protease ATG4B,11.5 µM (active)
same,IC50,Phospholipase A2,9.57 µM (active)
O=C(Cc1ccc2c(c1)OCO2)NN=Cc1ccc([N+](=O)[O-])o1,IC50,Exodeoxyribonuclease V,> 39.5 µM (inactive)
same,IC50,[10],21 µM (inactive)
same,AC50,[3],8.55 µM (active)
CC(C)(C)NC(=S)NNC=C1C=C(Br)C(=O)C(Br)=C1,IC50,Tumor necrosis factor,15.6 µM (active)
same,IC50,[11],7.29 µM (active)
same,IC50,[12],7.93 µM (active)
same,IC50,HEK293 [13],> 20 µM (inactive)
CC(=O)c1cccc(NC(=O)c2ccc([N+](=O)[O-])o2)c1,IC50,HEK293 [14],69.3 µM (inactive)
same,IC50,Jurkat [15],27.6 µM (inactive)
same,IC50,HEK293 [16],37.1 µM (inactive)
O=C(Nc1nnc(SCc2ccc(Cl)cc2)s1)c1ccc2ccccc2n1,EC50,[17],> 285 µM (inactive)
Cc1nc(N)sc1-c1csc(Nc2ccccc2)n1,AC50,[18],18.3 µM (active)
same,AC50,[19],14.4 µM (active)
O=C(O)c1cc(-c2ccc(/C=c3\sc4nc5ccc(Br)cc5n4c3=O)o2)ccc1Cl,IC50,[20],3.97 µM (active)
same,IC50,[21],1.42 µM (active)
same,IC50,[22],12 µM (active)
CCCCn1c(/N=C/c2ccc3c(c2)OCO3)nc2ccccc21,AC50,[23],60 µM (active)
